The subject of assay [1] is R. meliloti. In words: microbe, parasite or virus in culture. The class given is cell-based. The settings on record: for absorbance at which the reduction stopped: A550, FIGS. 3 and 5.
The conditions of assay [2]: cited from earlier work.
Assay [3] relates to R. meliloti. The class given is cell-based.
Setting [4] is: read-out: toxic concentration in mM equivalent to ppm of Table 7.
[5] abbreviates: Sinorhizobium meliloti, Table 4, organic compounds, read-out: average (ppm), concentration giving 50% inhibition of dye reduction.
The mark [6] stands for this setting: ratio of the inhibitory concentrations.
Setting [7] is: Sinorhizobium meliloti, read-out: IC50 ppm.
Where [8] appears, read: Sinorhizobium meliloti, read-out: Rhizobium/Tetrazolium ppm.
[9] abbreviates: rhizobium meliloti mtt reduction.
[10] abbreviates: Sinorhizobium meliloti, Table 9, read-out: Rhizobium/Tetrazolium ppm.

“Also recorded” adds a separate entry of the source. Like-named read-outs stand apart in the source and are kept apart here.

Regarding `[Ca+2].[Cl-].[Cl-]` [Calcium, calcium chloride], in the assay on R. meliloti [1] (19 ppm, with 500 μl of 5 mM EDTA (0.758 mM EDTA)), the “effect on the reaction” value is recorded as “does not affect the reaction”. The “ppm (50% inhibition of dye reduction)” value in the assay with R. meliloti [1] (Table 7, minerals) is listed as 5.230 ppm. Moreover, the “level at which toxic” value in the assay with R. meliloti [1] (in the absence of a counteracting substance) turned out to be 6 ppm. Moreover, the IC50 with R. meliloti [1] (setting [4]) was 0.0471 mM.
`Oc1c(Cl)c(Cl)c(Cl)c(Cl)c1Cl` [Pentachlorophenol, pentachlorophenol]: in the assay on R. meliloti [1], the “inhibition compared with trichlorophenol” value is given as “an order of magnitude greater” and the “absorbance at which the reduction stopped” value is reported as ≤ 0.25. In the assay on R. meliloti [1] (setting [5]), the IC50 stood at 0.206 µg/mL. Further, the IC50 with R. meliloti [1] (Sinorhizobium meliloti, Table 8, read-out: Rhizobium/Tetrazolium IC50) is 0.143 µg/mL. Also, in the assay with R. meliloti [1] (setting [6]), the “sensitivity of Rhizobium/Tetrazolium assay compared with Microtox assay” value is “at least an order of magnitude more sensitive for 4 compounds; also recorded: two orders of magnitude more sensitive”. For the same compound, the “Microtox IC50” value in assay [2] (Table 8) is recorded as 2.46-2.71 ppm. Also, the Microtox ppm in assay [2] (Table 9) is 2.46-2.71 ppm.
Consider `O=[N+]([O-])c1ccc(O)c([N+](=O)[O-])c1` [Dinitrophenol, dinitrophenol], for which the “absorbance at which the reduction stopped” value with R. meliloti [1] is recorded as 0.2. For the same compound, the IC50 in the assay on R. meliloti [1] (setting [5]) amounted to 574 µg/mL.
As to `ClC(Cl)=C(Cl)Cl` [tetrachloroethylene], the IC50 in the assay on R. meliloti [1] (setting [5]) amounted to 34.8 µg/mL.
As to `O=C1C(Cl)=CC(=Nc2ccc(O)cc2)C=C1Cl` [DCIP, 2,6-dichlorophenol-indophenol], the “rate of reduction of the dye” value in the assay on R. meliloti [3] is “reduced very slowly”.
Take `O=S(=O)([O-])[O-].[Mg+2]` [Magnesium, Magnesium sulfate]: the “ppm (50% inhibition of dye reduction)” value with R. meliloti [1] (Table 7, minerals) stood at 59.900 ppm. Also, the IC50 in the assay with R. meliloti [1] (setting [4]) was found to be 0.243 mM.
Take `ClC=C(Cl)Cl` [trichloroethylene]: the IC50 with R. meliloti [1] (setting [5]) worked out at 59.5 µg/mL.
In the case of `[Co]` [Cobalt], the “ppm (50% inhibition of dye reduction)” value in the assay on R. meliloti [1] (Table 7, minerals) worked out at 11.200 ppm.
For the compound `CC(C)=O` [Acetone], the values for the IC50 with R. meliloti [1] (setting [7]) and with R. meliloti [1] (setting [8]) were 71600 µg/mL and 1640 µg/mL, respectively. Moreover, the Microtox ppm in assay [2] (microtox bioluminescence) was 13305-29,109.
In the case of `O=C1NS(=O)(=O)c2ccccc21` [saccharin], in the assay on R. meliloti [1], the “absorbance to which the reduction would eventually go” value came out at 0.0. The IC50 in the assay on R. meliloti [1] (Sinorhizobium meliloti) amounted to 477 µg/mL.
In the case of `[Se]` [Selenium], the IC50 with R. meliloti [1] (Sinorhizobium meliloti, Table 7, minerals, read-out: ppm (50% inhibition of dye reduction)) was 226 µg/mL.
Take `ClC(Cl)Cl` [Chloroform]: in the assay with R. meliloti [1], the “IC50 (amount per tube)” value is 6.10 mg/tube and the IC50 volume is 827 µL. In addition, in the assay with R. meliloti [1] (setting [9]), the IC50 was found to be 4132 ppm and the “average (ppm), concentration giving 50% inhibition of dye reduction” value worked out at 2032.
In the case of `CCO` [Ethanol], the IC50 in the assay on R. meliloti [1] (setting [7]) worked out at 75600 µg/mL. The Microtox ppm in assay [2] (microtox bioluminescence) is reported as 23,090-55,388.
In the case of `C[S+](C)[O-]` [DMSO, dimethyl sulfoxide], the IC50 in the assay on R. meliloti [1] was found to be 203.3 μl/tube. Moreover, in assay [2] (microtox bioluminescence), the Microtox ppm was 3,506-102,995.
`CCCCCCCCCCCCOS(=O)(=O)[O-].[Na+]` [Sodium lauryl sulfate]: the figures for the IC50 in the assay with R. meliloti [1] (setting [5]) and in the assay on R. meliloti [1] (setting [10]) were 30.4 µg/mL and 31 µg/mL, respectively. The “sensitivity of Rhizobium/Tetrazolium assay compared with Microtox assay” value in the assay on R. meliloti [1] (setting [6]) is given as “at least an order of magnitude more sensitive than the Rhizobium/Tetrazolium assay”.
With `[Mn+2]` [Manganese], the “ppm (50% inhibition of dye reduction)” value in the assay on R. meliloti [1] (setting [9]) came out at 0.892.
In the assay with R. meliloti [1] (setting [9]), `[Ni]` [Nickel] registered a Rhizobium/Tetrazolium ppm of 49.3. Also, the Microtox ppm in assay [2] (microtox bioluminescence) was 34.
In the case of `[Cl-].[Na+]` [NaCl, sodium chloride], the IC50 in the assay on R. meliloti [1] (FIG. 12, 10% NaCl solution) was 60,689 ppm. For the same compound, the IC50 volume with R. meliloti [1] (FIG. 12, 10% NaCl solution, 590 nm) stood at 606.89 µL. In the assay on R. meliloti [1] (at 1000 μl of 10% NaCl solution, 590 nm), this compound registered an absorbance reached of 0.1.
On to `CO` [Methanol], for which the IC50 in the assay on R. meliloti [1] (Sinorhizobium meliloti, Table 6, solvents, read-out: IC50 ppm) came out at 76500 µg/mL; in the assay with R. meliloti [1] (setting [10]), 68400 µg/mL. The Microtox ppm in assay [2] (Table 9) is recorded as 11,368-320400 ppm.
For the compound `c1ccccc1` [Benzene], the “sensitivity of Rhizobium/Tetrazolium assay compared with Microtox assay” value with R. meliloti [1] is given as “at least an order of magnitude more sensitive than the Rhizobium/Tetrazolium assay”. The IC50 in the assay on R. meliloti [1] (Sinorhizobium meliloti, read-out: Rhizobium/Tetrazolium IC50) is 712 µg/mL; in the assay with R. meliloti [1] (setting [8]) it was 712 to 2100 µg/mL.
As for `[Fe]` [iron], the “inhibitory effect on the reduction of tetrazolium dye” value in the assay on R. meliloti [1] is on record as “no inhibitory effect”.
In the case of Mercury, in the assay with R. meliloti [1], the “inhibition of tetrazolium reduction” value is given as “inhibited tetrazolium reduction completely”. In addition, in the assay on R. meliloti [1] (setting [9]), the “ppm (50% inhibition of dye reduction)” value turned out to be 0.0179. Also, in assay [2] (microtox bioluminescence), the Microtox ppm is reported as 0.06.
As to `[Pb]` [Lead], in the assay on R. meliloti [1], the “inhibitory effect on the reduction of tetrazolium dye” value is on record as “no inhibitory effect”.
